Test results reported in paper PMC2992995, “Characterization and Online Detection of Surfactin Isomers Based on HPLC-MS^n Analyses and Their Inhibitory Effects on the Overproduction of Nitric Oxide and the Release of TNF-α and IL-6 in LPS-Induced Macrophages” (Marine Drugs, 2010).

Experiments:
Format in all cases: cell-based, murine
[1] = tested on: TNF-α production induced by LPS in RAW264.7 cells; assay: Inhibition of TNF-α release induced by LPS (ELISA); details: LPS 1 μg/mL, 6 h, samples 1–30 μM, mouse TNF-α ELISA of culture supernatant, means of four experiments
Method: (§1) RAW264.7 cells were incubated in RPMI 1640 medium supplemented with penicillin (100 U/mL), streptomycin (100 μg/mL) and 10% heat inactivated fetal bovine serum at 37 °C in a humidified incubator with 5% CO2.
[…] 100 μL of the culture supernatant was taken out to determine the level of TNF-α and IL-6 using respective enzyme-linked immunosorbent assay kit according to the manufacturer’s recommendations. Hydrocortisone was used as positive control.

[2] = tested on: IL-6 production induced by LPS in RAW264.7 cells; assay: Inhibition of IL-6 release induced by LPS (ELISA); details: LPS 1 μg/mL, 6 h, samples 1–30 μM, mouse IL-6 ELISA of culture supernatant, means of four experiments
Method: as §1
Cells were treated by LPS (1 μg/mL) with or without samples (1–9, 1–30 μM) for 6 h. 100 μL of the culture supernatant was taken out to determine the level of TNF-α and IL-6 using respective enzyme-linked immunosorbent assay kit according to the manufacturer’s recommendations. Hydrocortisone was used as positive control.

[3] = tested on: NO production induced by LPS in RAW264.7 cells; assay: Inhibition of NO production induced by LPS (Griess nitrite assay); details: Mus musculus, LPS 1 μg/mL, 24 h, samples 1–30 μM, Griess reagent, means of four experiments
Method: as §1
Nitric oxide was determined by measuring the amount of nitrite in the cell culture supernatant, using Griess reagent (mixture of equal volume of reagent A and reagent B, (A): 1% sulphanilamide; (B): 0.1% naphthylethylene diamine dihydrochloride in 10% H3PO4). Hydrocortisone was used as positive control. RAW264.7 cells were treated by lipopolysaccharides (LPS, 1 μg/mL) with or without samples (1–9, 1–30 μM) for 24 h, then briefly centrifuged. 100 μL of the cell culture supernatant were mixed with 100 μL of Griess reagent, followed by incubation for 10 min at room temperature. The absorbance at 540 nm was measured and the inhibitory rates were calculated by using a standard calibration curve prepared from different concentrations of sodium nitrite.

- IC50 [1]: 85.6 µM
- IC50 [2]: 63.9 µM
- IC50 [3]: 64.3 µM
Compound: C[C@]12CCC(=O)C=C1CC[C@@H]1[C@@H]2[C@@H](O)C[C@@]2(C)[C@H]1CC[C@]2(O)C(=O)CO [Hydrocortisone]
